Assay results from US20020004493A1, “Method for the treatment of apolipoprotein E related diseases” (priority 1996, published 2002).

Test system: toxic apoE fragments (22 kDa) on embryonic chick sympathetic neurons
Assay: Protection of sympathetic neurons against toxic apoE fragments (vital dye survival count)
Assay type: cell-based, chicken
Conditions: 10 min pre-incubation with compound, then toxic 22 kDa apoE fragments, overnight, read-out: C50, the concentration required to prevent 50% cell death as compared to control
From the text: The purified apoE was then digested with thrombin and the resulting fragments separated by HPLC gel filtration chromatography (Bio SEC-Bio Rad). After buffer exchange and lyophilization, the purified 22 kDa fragment was subjected to amino acid analysis. For neurotoxicity studies, lumbar sympathetic chain ganglia were isolated from embryonic day nine chicken embryos (Spafas, Inc., Roanoke, Ill.) under sterile conditions in unsupplemented Ham's F12 medium (Sigma). The dissected chains were exposed to trypsin (0.25%) for 20 minutes at 37° C. The trypsin was inactivated by addition of fetal bovine serum. The chains were washed three times with medium and then triturated with flamed Pasteur pipettes to dissociate the cells. The cells were resuspended in Neurobasal medium (Gibco) and plated into 96-well plates pretreated with poly-ornithine. Dishes were incubated at 37° C. with 5% CO2/95% air. Following overnight incubation, the cells were treated with a range of concentrations of various compounds diluted in F12 medium supplemented with 100 μM putrescine, 20 nM progesterone, 100 μg/ml human transferrin, 30 nM selenium and 1% antibiotics (penicillin-streptomycin). The neuronal cells were pre-incubated for 10 min at 37° C. with a predetermined concentration of compound. The toxic fragments were then added to the culture medium while controls used the corresponding vehicle without the toxic fragments. After overnight incubation, the cells were labeled with a vital dye (5-carboxyfluorescein diacetate, acetoxymethyl ester, Molecular Probes, Eugene, Oreg.) for 30 minutes. The wells were washed with fresh F12 medium and images of the stained cells were collected from each well using a Diaphot inverted fluorescence microscope connected to a MacIntosh IIfx computer equipped with a Framegrabber video card.

Compound | EC50
aniline blue | 25 µM
CCOc1ccc(Nc2ccc(C(=C3C=CC(=[N+](CC)Cc4cccc(S(=O)(=O)[O-])c4)C=C3)c3ccc(N(CC)Cc4cccc(S(=O)(=O)O)c4)cc3)cc2)cc1 [Coomassie brilliant blue R-250] | 35 µM
COc1cc(-c2ccc(N=Nc3ccc4c(S(=O)(=O)O)cc(S(=O)(=O)O)c(N)c4c3O)c(OC)c2)ccc1N=Nc1ccc2c(S(=O)(=O)O)cc(S(=O)(=O)O)c(N)c2c1O [Chicago sky blue 6b] | 15 µM
O=S(=O)(O)c1ccccc1N=Nc1c(S(=O)(=O)O)cc2cc(S(=O)(=O)O)c(N=Nc3ccccc3S(=O)(=O)O)c(O)c2c1O [sulfonazo III] | 45 µM
CCOc1ccc(Nc2ccc(C(=C3C=CC(=[N+](CC)Cc4cccc(S(=O)(=O)[O-])c4)C=C3C)c3ccc(N(CC)Cc4cccc(S(=O)(=O)O)c4)cc3C)cc2)cc1 [Coomassie brilliant blue G-250] | 40 µM
O=C(O)c1cc2ccccc2c(N=Nc2c(O)cc(S(=O)(=O)O)c3ccccc23)c1O [calconcarboxylic acid] | 10 µM
heparan sulfate | 1 µM
CCN(Cc1cccc(S(=O)(=O)O)c1)c1ccc(C(=C2C=CC(=[N+](CC)Cc3cccc(S(=O)(=O)[O-])c3)C=C2)c2ccc(S(=O)(=O)O)cc2)cc1 [light green S.F. yellowish] | 40 µM
Cc1cc(-c2ccc(N=Nc3cc(S(=O)(=O)O)c4ccccc4c3N)c(C)c2)ccc1N=Nc1cc(S(=O)(=O)O)c2ccccc2c1N [benzopurpurin 4b] | 50 µM
O=S1(=O)OC(c2cc(Br)c(O)c(Br)c2)(c2cc(Br)c(O)c(Br)c2)c2ccccc21 [bromophenol blue] | 16 µM
O=S(=O)(O)c1ccc(N=Nc2ccc(N=Nc3c(O)ccc4ccccc34)c(S(=O)(=O)O)c2)cc1 [biebrich scarlet] | 40 µM
dextran sulfate [dextran sulfate (5 kDa)] | 0.8 µM
pentosan sulfate [reference compound] | 1.5 µM
potassium polyvinyl sulfate | 0.035 µM
Cc1cc(-c2ccc(N=Nc3ccc4c(S(=O)(=O)O)cc(S(=O)(=O)O)c(N)c4c3O)c(C)c2)ccc1N=Nc1ccc2c(S(=O)(=O)O)cc(S(=O)(=O)O)c(N)c2c1O [Evan's blue] | 8 µM
O=S(=O)(O)c1ccc(N=Nc2ccc(N=Nc3c(O)c(S(=O)(=O)O)cc4cc(S(=O)(=O)O)ccc34)c(S(=O)(=O)O)c2)cc1 [ponceau S] | 5 µM
O=S(=O)(O)c1ccc(N=C2C=CC(=C(c3ccc(Nc4ccc(S(=O)(=O)O)cc4)cc3)c3ccc(Nc4ccc(S(=O)(=O)O)cc4)cc3)C=C2)cc1 [methyl blue] | 20 µM
Cc1c(C2(c3cc(Br)c(O)c(Br)c3C)OS(=O)(=O)c3ccccc32)cc(Br)c(O)c1Br [bromocresol green] | 25 µM
Cc1ccc2nc(-c3ccc(N=NNc4ccc(-c5nc6ccc(C)c(S(=O)(=O)O)c6s5)cc4)cc3)sc2c1S(=O)(=O)O [thiazol yellow G] | 25 µM
COc1cc(-c2ccc(N=Nc3c(S(=O)(=O)O)cc4cc(S(=O)(=O)O)cc(N)c4c3O)c(OC)c2)ccc1N=Nc1c(S(=O)(=O)O)cc2cc(S(=O)(=O)O)cc(N)c2c1O [direct blue 15] | 18 µM
O=S(=O)(O)c1ccc2c(N=Nc3ccc(S(=O)(=O)O)c4ccccc34)c(O)c(S(=O)(=O)O)cc2c1 [amaranth] | 25 µM

Same assay, conditions: Gallus gallus, Sympathetic neuron, 10 min pre-incubation with compound, then toxic 22 kDa apoE fragments, overnight, read-out: C50, the concentration required to prevent 50% cell death as compared to control

Compound | EC50
Nc1c(/N=N/c2ccc(-c3ccc(/N=N/c4cc(S(=O)(=O)O)c5ccccc5c4N)cc3)cc2)cc(S(=O)(=O)O)c2ccccc12 [congo red] | 25 µM
Cc1ccc(C(=O)Nc2ccc(S(=O)(=O)O)c3cc(S(=O)(=O)O)cc(S(=O)(=O)O)c23)cc1NC(=O)c1cccc(NC(=O)Nc2cccc(C(=O)Nc3cc(C(=O)Nc4ccc(S(=O)(=O)O)c5cc(S(=O)(=O)O)cc(S(=O)(=O)O)c45)ccc3C)c2)c1 [suramin sodium, reference compound] | 5 µM
O=C(O)C1=CC(=C(c2ccc(O)c(C(=O)O)c2)c2ccc(O)c(C(=O)O)c2)C=CC1=O [aurintricarboxylic acid] | 11 µM
Cc1cc(-c2ccc(/N=N/c3c(S(=O)(=O)O)cc4cc(S(=O)(=O)O)cc(N)c4c3O)c(C)c2)ccc1/N=N/c1c(S(=O)(=O)O)cc2cc(S(=O)(=O)O)cc(N)c2c1O [trypan blue] | 20 µM
Nc1c(S(=O)(=O)O)cc(Nc2ccc(Nc3nc(Cl)nc(Nc4ccccc4S(=O)(=O)O)n3)c(S(=O)(=O)O)c2)c2c1C(=O)c1ccccc1C2=O [cibacron blue] | 20 µM
O=C1OC(c2ccc(O)c(S(=O)(=O)O)c2)(c2ccc(O)c(S(=O)(=O)O)c2)c2c(Br)c(Br)c(Br)c(Br)c21 [sulfobromophthalein] | 32 µM

Test system: E3- or E4-derived 22 kDa apoE fragment on embryonic chick sympathetic neurons
Assay: Effects of apoE 22 kDa peptides on sympathetic neurons in culture, with dermatan sulfate pre-incubation
Assay type: cell-based, chicken
Conditions: 4 μM dermatan sulfate, 10 min pre-incubation; overnight exposure to E3- or E4-derived 22 kDa fragment
Protocol: Since the 22 kDa fragment contains the domain associated with toxicity and corresponds to the major N-terminal proteolytic fragment of apoE, assessment of the efficacy of a compound can first be screened by measuring the inhibition of the 22 kDa toxicity in vitro. The 22 kDa thrombolytic cleavage fragment product of apoE is neurotoxic and is purified from medium of HEK cells transfected with the gene for human apoE4. Neuronal toxicity is then assessed using dissociated embryonic chick sympathetic neurons in 96 well microtiter plates. Following the addition of the fragments, the cultures are incubated overnight. Viability is then assessed by vital dye staining.
Transfected HEK cells are cultured as previously described (LaDu, M. J., et al., J. Biol. Chem. 258:12348-54 (1983)). The apoE is concentrated from conditioned medium by ultrafiltration (10 kDa cut-off membrane, Amicon) followed by heparin column chromatography (heparin-coupled agarose beads, Sigma). […] The wells are washed with fresh F12 medium and images of the stained cells are collected from each well by using a Diaphot inverted fluorescence microscope connected to a Macintosh IIfx computer equipped with a Framegrabber video card. The number of labeled neurons is quantified from the stored images with NIH Image software (version 1.57).

Compound | toxicity of 22 kDa apoE fragment in treated neurons
dermatan sulfate | toxicity is completely ablated

Test system: apoE peptide toxicity (141-149 domain)
Assay: not given
Conditions: peptide with second heparin-binding site, lacking the 141-149 sequence; cited from earlier work

Compound | bioactivity (toxicity) of apoE peptide
E211-243: apoE peptide containing a second heparin-binding site but lacking the 141-149 sequence (GERLRARMEEMGSRTRDRLDEVKEQVAEVRAKL; UniProt P02649 229-261, looked up, fragment) [reference compound] | inactive

Same assay, conditions: polyanionic glycosaminoglycans; cited from earlier work

Compound | effect on apoE peptide-mediated toxicity
chondroitin sulfate | ablation of peptide-mediated toxicity
heparin [reference compound] | ablation of peptide-mediated toxicity
heparan sulfate | ablation of peptide-mediated toxicity
